The text below walks through data of EP4635969A1, “NOVEL GLUCOCORTICOID, METHOD FOR PREPARING SAME, AND USE THEREOF” (Tianjin Pharmaceutical Biotechnology Co., Ltd., priority 2022, dated 2024).

Where two headings read alike, the source gives them in different places. Where only a bound is given, the exact number is not on record here.

The subject of data set [1] is intraocular pressure of guinea pigs. Description: Adverse reactions of continuous ocular administration: intraocular pressure. Format: in vivo. Here is the method:
Pharmacological Example 9: Experiment on Adverse Reactions of Continuous Ocular Administration in Guinea Pigs
Test samples: Compounds 17 and 23 were prepared as 5 mg/5 mL ophthalmic suspensions with reference to the formulation of Fluorometholone Eye Drops, and stored at room temperature protected from light until use.
Positive control drug: Fluorometholone Eye Drops (specification: 5 mL/5 mg; Santen Pharmaceutical (CHINA) Co., Ltd.; Lot No.: 1FM6545), Loteprednol Etabonate Eye Drops (specification 0.5% (5 mg/mL); Shandong Bausch & Lomb Freda Pharmaceutical Co., Ltd; Lot No. 386521), stored at room temperature protected from light until use.
Animals: 50 guinea pigs, conventional grade, with an equal number of males and females, weighing 300-350 g..
Animal grouping: After 5 days of adaptive feeding, the guinea pigs were randomly divided into 5 groups based on body weight. Group 1 was the blank control group, and 50 µL of normal saline was dropped into the eyes (bilateral) of the guinea pigs. Groups 2 to 5 were the fluorometholone group, loteprednol group, compound 17 group, and compound 23 group, respectively, and the corresponding drugs were dropped into the eyes (bilateral) of the guinea pigs. Table 19. Animal grouping and drug administration dosages for the experiment on adverse reactions of continuous ocular administration in guinea pigs
Intraocular pressure measurement time: The intraocular pressure of animals in each group was measured before administration and on days 7, 14, 21, and 28 post-administration.

The test system of data set [2] is inflammatory cytokines IL-6 and IL-12. As to the kind of experiment: Anti-asthma pharmacodynamic experiment: inflammatory cytokines in bronchoalveolar lavage fluid (ELISA). Format: in vivo, female BALB/c mice. The following applies: for IL-6 / IL-12: bronchoalveolar lavage fluid, 0.3 mg/mL, 50 µL intratracheally once daily for 3 days. (In an ELISA, binding on a coated surface is turned into a signal by an enzyme label.)
Description: (§6) Pharmacological Example 4: Pharmacodynamic Experiment on Anti-Asthma
(§7) The suspensions were stored at room temperature protected from light until use.
(§8) Positive control drug: Budesonide Suspension for Inhalation (specification: 2 mL: 1 mg; AstraZeneca Inc.; Lot No. : 327392) was diluted with injection-grade sodium chloride solution to 0.3 mg/ml as the positive control drug, and stored at room temperature protected from light until use.
(§9) Sixty female BALB/c mice underwent a one-week adaptive feeding period. Ten mice were randomly selected as the blank control group, while 50 mice were selected to establish asthma models.
(§10) From days 21 to 23 after sensitization, the mice in the model group and drug administration group were exposed to a 30-minute aerosol challenge with 5% OVA, while the mice in the blank control group were exposed to normal saline aerosol for the same duration.
At the end of airway hyperresponsiveness testing in mice, the mice were euthanized by cervical dislocation and fixed on a dissection tray. The abdomens and thoracic cavities of the mice were opened, and the skin and excess tissues of the neck were excised to expose the trachea of the mice. A small incision was made transversely on the trachea with a small scissors. A pre-treated 1 mL syringe needle was inserted and fastened with surgical thread. A 1 mL syringe was used to slowly inject 0.5 mL of pre-chilled phosphate-buffered saline (PBS) into the lungs of the mice, followed by slow aspiration. Each mouse was lavaged once, and a total of approximately 0.4 ml of lavage fluid was collected. The bronchoalveolar lavage fluid was centrifuged at 3000 rpm for 5 min. After centrifugation, the supernatant was aliquoted, and the levels of inflammatory cytokines IL-6 and IL-12 in the bronchoalveolar lavage fluid were determined using ELISA kits.
(§11) Statistical analysis was performed using SPSS software. Measurement data were expressed as mean ± standard deviation. One-way ANOVA was used for intergroup comparisons. For data with homogeneous variance, LSD test was used; for data with heterogeneous variance, Dunnett-t test was used. A value of P < 0.05 was considered statistically significant.

Data set [3] deals with T1, mineralocorticoid receptor (MR) (Homo sapiens, UniProt P08235).
T1 sequence (P08235 726-984): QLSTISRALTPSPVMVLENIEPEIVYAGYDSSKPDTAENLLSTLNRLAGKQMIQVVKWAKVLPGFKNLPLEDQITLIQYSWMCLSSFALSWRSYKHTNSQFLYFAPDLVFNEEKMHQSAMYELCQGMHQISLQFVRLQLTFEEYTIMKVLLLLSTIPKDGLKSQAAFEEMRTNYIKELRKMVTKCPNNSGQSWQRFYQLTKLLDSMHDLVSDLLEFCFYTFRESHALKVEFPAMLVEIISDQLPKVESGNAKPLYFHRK
Description: Assay for agonist activity on mineralocorticoid receptor (luciferase reporter, HEK293 cells transfected with pBIND-MR plasmid). Format: cell-based. The following applies: for EC50: EC50 of agonist activity, HEK293 reporter cells, top concentration 50 µM, read-out: Nuclear receptor enzyme activity (nM) MR. On the procedure:
(§1) Pharmacological Example 2: Assay for Agonist Activity on Mineralocorticoid Receptor (MR) and Progesterone Receptor (PR)
(§2) Test compound stock solutions: The test compounds (compounds 4, 5, 7, 8, 9, 11, 13, 16, 17, 18, 22, 23, 24, 34, 35, 36, 38, 41, 45, 47, 53, 55, and 59) were accurately weighed, dissolved in DMSO to prepare stock solutions at a concentration of 20 mM, and stored at -20 °C.
(§3) The test compounds were subjected to a 4-fold serial dilution starting from an initial concentration of 50 µ M, generating a 12-point concentration gradient with duplicate wells for each concentration. The blank control consisted of 0.1% DMSO.
(§4) The HEK293 stable cell lines […] transfected with mineralocorticoid receptor (MR) and progesterone receptor (PR) (ICE Bioscience, Lot No. TYP-20220819, TPJ-20220812) were cultured in Dulbecco's Modified Eagle Medium (DMEM) supplemented with 10% fetal bovine serum (FBS) and 200 µ g/ml Hygromycin B in a cell incubator containing 5% CO2 at 37 °C. The spent medium was aspirated, and the cells were washed once with phosphate-buffered saline (PBS). Then, 1 mL of TrypLE™ Express solution was added, and the cells were incubated at 37 °C for approximately 2 min. When the cells detached from the bottom of the cell culture dish, approximately 5 mL of pre-warmed complete medium at 37 °C was added. The cell suspension was gently pipetted with a pipette to dissociate clumped cells. The cell suspension was transferred to a sterile centrifuge tube and centrifuged at 1000 rpm for 5 min to pellet the cells for experiments or subculture..
(§5) HEK293 cells were digested and seeded into 6-cm culture dishes. The pBIND-MR and pBIND-PR plasmids were separately transfected into the HEK293 cells using a transfection reagent, resulting in HEK293 cells successfully transfected with the pBIND-MR and pBIND-PR plasmids, respectively. The cells were resuspended in phenol red-free DMEM medium containing 5% charcoal-stripped serum, counted, and then seeded into 96-well plates. The test compounds were added, and the plates were then incubated in an incubator. The luminescence signal values were measured using a multimode microplate reader following the instructions of the luciferase assay kit. The EC50 values of each test compound were calculated using the nonlinear fitting formula with GraphPad Prism 8.0 software.
In general terms: In a reporter assay the amount or activity of a reporter protein is the signal.

The test system of a further data set is asthma model mice. As to the kind of experiment: Anti-asthma pharmacodynamic experiment: airway hyperresponsiveness (Penh) after methacholine challenge. Format: in vivo, female BALB/c mice. The note with it: for Penh values in mice, Methacholine concentration (mg/ml) 0 / Penh values in mice, Methacholine concentration (mg/ml) 6.25 / Penh values in mice, Methacholine concentration (mg/ml) 12.5: 0.3 mg/mL, 50 µL intratracheally once daily for 3 days; for Penh values in mice, Methacholine concentration (mg/ml) 0: methacholine 0 mg/ml; for Penh values in mice, Methacholine concentration (mg/ml) 6.25: methacholine 6.25 mg/ml; for Penh values in mice, Methacholine concentration (mg/ml) 12.5: methacholine 12.5 mg/ml.

Data set [4] addresses T2, progesterone receptor (PR) (Homo sapiens, UniProt P06401).
T2 sequence (P06401 678-933): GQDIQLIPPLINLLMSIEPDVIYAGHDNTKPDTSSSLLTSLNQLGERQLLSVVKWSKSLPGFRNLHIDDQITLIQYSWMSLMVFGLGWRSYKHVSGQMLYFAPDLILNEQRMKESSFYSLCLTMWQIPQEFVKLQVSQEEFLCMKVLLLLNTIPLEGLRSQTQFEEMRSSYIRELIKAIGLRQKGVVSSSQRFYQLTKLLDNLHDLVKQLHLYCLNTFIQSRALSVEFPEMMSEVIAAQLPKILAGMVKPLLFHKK
As to the kind of experiment: Assay for agonist activity on progesterone receptor (luciferase reporter, HEK293 cells transfected with pBIND-PR plasmid). It is filed as cell-based. The note with it: for EC50: EC50 of agonist activity, HEK293 reporter cells, top concentration 50 µM, read-out: Nuclear receptor enzyme activity (nM) PR. Here is the method: as §1, §2, §3, §4, §5

The target in data set [5] is T3, glucocorticoid receptor (GR) (Homo sapiens, UniProt P04150).
T3 sequence (P04150 521-777): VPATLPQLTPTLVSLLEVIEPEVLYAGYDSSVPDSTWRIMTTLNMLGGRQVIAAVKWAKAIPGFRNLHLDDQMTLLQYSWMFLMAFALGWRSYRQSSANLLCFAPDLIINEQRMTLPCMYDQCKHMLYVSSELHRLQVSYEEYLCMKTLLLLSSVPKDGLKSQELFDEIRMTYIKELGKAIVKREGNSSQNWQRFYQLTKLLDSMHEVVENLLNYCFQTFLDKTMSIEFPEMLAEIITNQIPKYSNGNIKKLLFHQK
Description: Assay for agonist activity on glucocorticoid receptor (luciferase reporter, HEK293 cells transfected with pBIND-GR plasmid). Format: cell-based. The procedure, abridged: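 Readout is luciferase luminescence, with EC50 derived by nonlinear fitting. Compounds ran at 10 concentrations (4-fold steps, top 10 µM, duplicate wells) on pBIND-GR-transfected HEK293 cells in phenol red-free DMEM plus 5% charcoal-stripped serum; 0.1% DMSO served as blank.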

Description for asthma model mice: as §6, §7, §8, §9, §10
Airway responsiveness was measured in all groups of mice after the last challenge. The mice were placed into a plethysmography chamber, and baseline Penh values were recorded. Subsequently, the mice were challenged with aerosolized methacholine at concentrations from low to high of 0, 6.25, and 12.5 mg/mL, with an aerosol volume of 100 µ L each time for 60 s. […] Penh values were then recorded for 3 min and averaged to compare the airway responsiveness of each group of mice.
as §11

With `CCOC(=O)O[C@]1(C(=O)OCCl)CC[C@H]2[C@@H]3CCC4=CC(=O)C=C[C@]4(C)[C@H]3[C@@H](O)C[C@@]21C` [Loteprednol, Loteprednol Etabonate, reference compound], the “intraocular pressure after continuous ocular administration” value in data set [1] is “intraocular pressure elevation was detected on day 7”. Besides, the “Intraocular pressure of guinea pigs (mmHg) D0” value in data set [1] (D0, before administration, 50 µL/eye (compounds and fluorometholone 1 mg/mL, loteprednol 5 mg/mL)) is 14.0 ± 1.8 mmHg. Besides, the “Intraocular pressure of guinea pigs (mmHg) D7” value in data set [1] (D7, 50 µL/eye (compounds and fluorometholone 1 mg/mL, loteprednol 5 mg/mL)) was determined as 19.0 ± 3.5 mmHg. Moreover, the “Intraocular pressure of guinea pigs (mmHg) D14” value in data set [1] (D14, 50 µL/eye (compounds and fluorometholone 1 mg/mL, loteprednol 5 mg/mL)) is given as 18.5 ± 1.5 mmHg. In addition, in data set [1] (D21, 50 µL/eye (compounds and fluorometholone 1 mg/mL, loteprednol 5 mg/mL)), the “Intraocular pressure of guinea pigs (mmHg) D21” value came to 18.5 ± 0.7 mmHg. Moreover, the “Intraocular pressure of guinea pigs (mmHg) D28” value in data set [1] (D28, 50 µL/eye (compounds and fluorometholone 1 mg/mL, loteprednol 5 mg/mL)) is listed as 19.5 ± 0.6 mmHg.

For `C[C@]12C=CC(=O)C=C1[C@@H](F)C[C@H]1[C@@H]3C[C@H]4OC(c5ccc(CSC6COC(=O)C6)cc5)O[C@@]4(C(=O)CO)[C@@]3(C)C[C@H](O)[C@@]12F` (stereo partly drawn) [Compound 11, (2S,6aS,6bR,7S,8aS,8bS,11aR,12aS,12bS)-2,6b-Difluoro-7-hydroxy-8b-(2-hydroxyacetyl)-6a,8a-dimethyl-10-(4-(((5-oxotetrahydrofuran-3-yl)thio)methyl)phenyl)-1,2,6a,6b,7,8,8a,8b,11a,12,12a, 12b-dodecahydro-4H-naphtho[2',1':4,5]indeno[1,2-d][1,3]dioxol-4-one], in data set [2], the “IL-6” value worked out at 16.3 ± 7.9 pg/mL and the “IL-12” value came out at 11.1 ± 3.7 pg/mL. Besides, the “Effects on inflammatory cytokines in bronchoalveolar lavage fluid of mice” value in data set [2] (compared with the model group) is “extremely significantly decreased the levels of IL-6 and IL-12 in mice”. Moreover, the EC50 in data set [3] was more than 50000 nM. For the same compound, in the data set on asthma model mice, the “Penh values in mice, Methacholine concentration (mg/ml) 0” value was 1.08 ± 0.18; the “Penh values in mice, Methacholine concentration (mg/ml) 6.25” value turned out to be 1.45 ± 0.31; the “Penh values in mice, Methacholine concentration (mg/ml) 12.5” value turned out to be 1.92 ± 0.34. In addition, the “Effects on airway hyperresponsiveness (Penh values) in mice” value with asthma model mice (compared with the model group) was “significantly decreased the Penh values in mice”. Moreover, the EC50 in data set [4] is more than 50000 nM.

Consider `CCCC1O[C@@H]2C[C@H]3[C@@H]4CCC5=CC(=O)C=C[C@]5(C)[C@H]4[C@@H](O)C[C@]3(C)[C@]2(C(=O)CO)O1` (some centres unmarked) [Budesonide, reference compound], for which, in data set [2], the “IL-6” value turned out to be 21.5 ± 6.8 pg/mL and the “IL-12” value amounted to 17.5 ± 4.9 pg/mL. Moreover, in the data set with asthma model mice, the “Penh values in mice, Methacholine concentration (mg/ml) 0” value was 1.12 ± 0.30; the “Penh values in mice, Methacholine concentration (mg/ml) 6.25” value is 1.65 ± 0.29; the “Penh values in mice, Methacholine concentration (mg/ml) 12.5” value is 2.14 ± 0.38.

As for `C[C@]12C=CC(=O)C=C1[C@@H](F)C[C@H]1[C@@H]3C[C@H]4OC(c5ccc(C[S+]([O-])C6CCOC6=O)cc5)O[C@@]4(C(=O)CO)[C@@]3(C)C[C@H](O)[C@@]12F` (stereo partly drawn) [Compound 55, (2S,6aS,6bR,7S,8aS,8bS,11aR,12aS,12bS)-2,6b-Difluoro-7-hydroxy-8b-(2-hydroxyacetyl)-6a,8a-dimethyl-10-(4-(((2-oxotetrahydrofuran-3-yl)sulfinyl)methyl)phenyl)-1,2,6a,6b,7,8,8a,8b,11a,12,1 2a,12b-dodecahydro-4H-naphtho[2',1':4,5]indeno[1,2-d][1,3]dioxol-4-one], the EC50 is 1.33 nM in data set [5] (EC50 of agonist activity, HEK293 reporter cells, read-out: Nuclear receptor enzyme activity (nM) GR); 1.33 nM in data set [5] (HEK293 cells transfected with pBIND-GR, luciferase signal, read-out: GR agonist EC50); more than 50000 nM in data set [3]; more than 50000 nM in data set [4]. In addition, in data set [3] (ratio of EC50 values), the “Target selectivity MR/GR” value is given as > 3.8×10^4. Further, in data set [4] (ratio of EC50 values), the “Target selectivity PR/GR” value is on record as > 3.8×10^4.
